In brackets after ≈: the same amount, converted by molar mass. Where two headings read alike, the source gives them in different places.
What was measured:
Assay in all cases: microbe, parasite or virus in culture
Type in all cases: cell-based, Mycobacterium tuberculosis
[1] = system: Mtb strain resistant to Ethionamide ATCC 35830; settings: for MIC: Mycobacterium tuberculosis; for MIC, Mtb strain resistant to Ethionamide ATCC 35830: Table 5
[2] = system: Mtb strain resistant to Streptomycin ATCC 35820; settings: for MIC: Mycobacterium tuberculosis
[3] = system: Mtb strain resistant to Ethambutol ATCC 35837; settings: for MIC: Mycobacterium tuberculosis; for MIC, Mtb strain resistant to Ethambutol ATCC 35837: Table 5
[4] = system: Mtb strain resistant to P-aminosalicyclic acid ATCC 35821; settings: for MIC: Mycobacterium tuberculosis; for MIC, Mtb strain resistant to P-aminosalicyclic acid ATCC 35821: Table 5
[5] = system: Mtb strain resistant to Kanamycin ATCC 35827; settings: for MIC: Mycobacterium tuberculosis
[6] = system: Mtb strain resistant to Isoniazid ATCC 35822; settings: for MIC: Mycobacterium tuberculosis
[7] = ATCC35830, read-out: MIC, Mtb strain resistant to Ethionamide ATCC 35830
[8] = ATCC35820, 168 h, read-out: MIC, Mtb strain resistant to Streptomycin ATCC 35820
[9] = ATCC35837, read-out: MIC, Mtb strain resistant to Ethambutol ATCC 35837
[10] = ATCC35821, read-out: MIC, Mtb strain resistant to P-aminosalicyclic acid ATCC 35821
[11] = ATCC35827, 168 h, read-out: MIC, Mtb strain resistant to Kanamycin ATCC 35827
[12] = ATCC35822, 168 h, read-out: MIC, Mtb strain resistant to Isoniazid ATCC 35822
[13] = ATCC35830, read-out: Activity against Mtb strain resistant to Ethionamide ATCC 35830
[14] = ATCC35827, read-out: Activity against Mtb strain resistant to Kanamycin ATCC 35827
[15] = ATCC35820, read-out: Activity against Mtb strain resistant to Streptomycin ATCC 35820
[16] = ATCC35822, read-out: Activity against Mtb strain resistant to Isoniazid ATCC 35822
[17] = ATCC35821, read-out: Activity against Mtb strain resistant to P-aminosalicyclic acid ATCC 35821

Structure (SMILES): CC(C)(C)Nc1n[n+]([O-])c2ccccc2[n+]1[O-] [Compound 8c, 3-(tert-butylamino)benzo[e][1,2,4]triazine 1,4-dioxide]
- MIC [1, 7]: 1.2 µg/mL (≈ 5.12 µM)
- MIC [2, 8]: 1.2 µg/mL (≈ 5.12 µM)
- MIC [3, 9]: 2.5 µg/mL (≈ 10.7 µM)
- MIC [4, 10]: 1.2 µg/mL (≈ 5.12 µM)

Structure (SMILES): CCNc1n[n+]([O-])c2cccc(C)c2[n+]1[O-] [Compound 15ea, Ethyl-(5-methyl-1,4-dioxy-benzo[1,2,4]triazin-3-yl)-amine]
- MIC, Mtb strain resistant to Ethionamide ATCC 35830 [1]: 0.31 µg/mL (≈ 1.41 µM)
- MIC, Mtb strain resistant to Kanamycin ATCC 35827 ([5]; Table 5): 0.62 µg/mL (≈ 2.82 µM)
- MIC, Mtb strain resistant to Streptomycin ATCC 35820 ([2]; Table 5): 0.16 µg/mL (≈ 0.727 µM)
- MIC, Mtb strain resistant to Ethambutol ATCC 35837 [3]: 0.62 µg/mL (≈ 2.82 µM)
- MIC, Mtb strain resistant to Isoniazid ATCC 35822 ([6]; Table 5): 0.62 µg/mL (≈ 2.82 µM)
- MIC, Mtb strain resistant to P-aminosalicyclic acid ATCC 35821 [4]: 0.31 µg/mL (≈ 1.41 µM)

Structure (SMILES): CCNc1n[n+]([O-])c2cc3c(cc2[n+]1[O-])CCC3 [Compound 15fa, 3-(ethylamino)-7,8-dihydro-6H-indeno[5,6-e][1,2,4]triazine 1,4-dioxide]
- MIC [1, 7]: 1.2 µg/mL (≈ 4.87 µM)
- MIC [5, 11]: 1.2 µg/mL (≈ 4.87 µM)
- MIC [2, 8]: 0.63 µg/mL (≈ 2.56 µM)
- MIC [3, 9]: 1.2 µg/mL (≈ 4.87 µM)
- MIC [6, 12]: 2.5 µg/mL (≈ 10.2 µM)
- MIC [4, 10]: 1.2 µg/mL (≈ 4.87 µM)

Structure (SMILES): [O-][n+]1nc(NC2CCC2)[n+]([O-])c2cc3c(cc21)CCC3 [Compound 15fd, Cyclobutyl-(5,8-dioxy-2,3-dihydro-1H-5,6,8-triaza-cyclopenta[b]naphthalen-7-yl)-amine]
- MIC, Mtb strain resistant to Ethionamide ATCC 35830 [1]: 0.62 µg/mL (≈ 2.28 µM)
- MIC, Mtb strain resistant to Kanamycin ATCC 35827 ([5]; Table 5): 1.2 µg/mL (≈ 4.41 µM)
- MIC, Mtb strain resistant to Streptomycin ATCC 35820 ([2]; Table 5): 0.31 µg/mL (≈ 1.14 µM)
- MIC, Mtb strain resistant to Ethambutol ATCC 35837 [3]: 0.62 µg/mL (≈ 2.28 µM)
- MIC, Mtb strain resistant to Isoniazid ATCC 35822 ([6]; Table 5): 1.2 µg/mL (≈ 4.41 µM)
- MIC, Mtb strain resistant to P-aminosalicyclic acid ATCC 35821 [4]: 0.62 µg/mL (≈ 2.28 µM)

Structure (SMILES): CCNc1n[n+]([O-])c2cc(C)c(OC)cc2[n+]1[O-] [Compound 15ga, 3-(ethylamino)-6-methoxy-7-methylbenzo[e][1,2,4]triazine 1,4-dioxide]
- MIC [1, 7]: 1.2 µg/mL (≈ 4.8 µM)
- MIC [5, 11]: 1.2 µg/mL (≈ 4.8 µM)
- MIC [2, 8]: 1.2 µg/mL (≈ 4.8 µM)
- MIC [3, 9]: 1.2 µg/mL (≈ 4.8 µM)
- MIC [6, 12]: 1.2 µg/mL (≈ 4.8 µM)
- MIC [4, 10]: 1.2 µg/mL (≈ 4.8 µM)

Structure (SMILES): [O-][n+]1nc(N2CCCC2)[n+]([O-])c2ccccc21 [Compound 17q, 3-(pyrrolidin-1-yl)benzo[e][1,2,4]triazine 1,4-dioxide]
- MIC [1, 7]: 0.31 µg/mL (≈ 1.33 µM)
- MIC [2, 8]: 0.02 µg/mL (≈ 0.0861 µM)
- MIC [3, 9]: 0.31 µg/mL (≈ 1.33 µM)
- MIC [4, 10]: 0.62 µg/mL (≈ 2.67 µM)

Structure (SMILES): [O-][n+]1nc(N2CCCC2)[n+]([O-])c2cc3c(cc21)CCC3 [Compound 20q, 3-(pyrrolidin-1-yl)-7,8-dihydro-6H-indeno[5,6-e][1,2,4]triazine 1,4-dioxide]
- MIC ([5]; ATCC35827, 168 h, Table 5, read-out: MIC, Mtb strain resistant to Kanamycin ATCC 35827): 0.63 µg/mL (≈ 2.31 µM)
- MIC ([2]; ATCC35820, 168 h, Table 5, read-out: MIC, Mtb strain resistant to Streptomycin ATCC 35820): 0.16 µg/mL (≈ 0.588 µM)
- MIC ([6]; ATCC35822, 168 h, Table 5, read-out: MIC, Mtb strain resistant to Isoniazid ATCC 35822): 0.31 µg/mL (≈ 1.14 µM)

Structure (SMILES): [O-][n+]1nc(N2CCCCC2)[n+]([O-])c2cc3c(cc21)CCC3 [Compound 20r, 3-(piperidin-1-yl)-7,8-dihydro-6H-indeno[5,6-e][1,2,4]triazine 1,4-dioxide]
- MIC [1, 7]: 0.31 µg/mL (≈ 1.08 µM)
- MIC [2, 8]: 0.15 µg/mL (≈ 0.524 µM)
- MIC [3, 9]: 0.31 µg/mL (≈ 1.08 µM)
- MIC [4, 10]: 0.31 µg/mL (≈ 1.08 µM)

Structure (SMILES): CN(C)c1n[n+]([O-])c2cc3c(cc2[n+]1[O-])CCC3 [Compound 20s, 3-(dimethylamino)-7,8-dihydro-6H-indeno[5,6-e][1,2,4]triazine 1,4-dioxide]
- MIC [1, 7]: 0.15 µg/mL (≈ 0.609 µM)
- MIC [2, 8]: < 0.07 µg/mL
- MIC [3, 9]: 0.31 µg/mL (≈ 1.26 µM)
- MIC [4, 10]: 0.15 µg/mL (≈ 0.609 µM)

Structure (SMILES): CN(Cc1ccccc1)c1n[n+]([O-])c2cc3c(cc2[n+]1[O-])CCC3 [Compound 20t, 3-(benzyl(methyl)amino)-7,8-dihydro-6H-indeno[5,6-e][1,2,4]triazine 1,4-dioxide]
- MIC [1, 7]: 0.07 µg/mL (≈ 0.217 µM)
- MIC [2, 8]: < 0.07 µg/mL
- MIC [3, 9]: 0.15 µg/mL (≈ 0.465 µM)
- MIC [4, 10]: 0.07 µg/mL (≈ 0.217 µM)

Structure (SMILES): CN(CCc1ccccc1)c1n[n+]([O-])c2cc3c(cc2[n+]1[O-])CCC3 [Compound 20u, 3-(methyl(phenethyl)amino)-7,8-dihydro-6H-indeno[5,6-e][1,2,4]triazine 1,4-dioxide]
- MIC [1, 7]: 0.15 µg/mL (≈ 0.446 µM)
- MIC [2, 8]: < 0.07 µg/mL
- MIC [3, 9]: 0.31 µg/mL (≈ 0.922 µM)
- MIC [4, 10]: 0.15 µg/mL (≈ 0.446 µM)

Structure (SMILES): CC1CCCCN1c1n[n+]([O-])c2cc3c(cc2[n+]1[O-])CCC3 (stereo not drawn) [Compound 20w, 3-(2-methylpiperidin-1-yl)-7,8-dihydro-6H-indeno[5,6-e][1,2,4]triazine 1,4-dioxide]
- MIC [1, 7]: 0.31 µg/mL (≈ 1.03 µM)
- MIC [2, 8]: 0.31 µg/mL (≈ 1.03 µM)
- MIC [3, 9]: 0.62 µg/mL (≈ 2.06 µM)
- MIC [4, 10]: 0.62 µg/mL (≈ 2.06 µM)

Structure (SMILES): CC(C)(C)Nc1n[n+]([O-])c2ccccc2[n+]1[O-] [SRI-003356]
- MIC [1, 13]: 1.25 µg/mL (≈ 5.34 µM)
- MIC [5, 14]: 2.5 µg/mL (≈ 10.7 µM)
- MIC [2, 15]: 1.25 µg/mL (≈ 5.34 µM)
- MIC [6, 16]: 2.5 µg/mL (≈ 10.7 µM)
- MIC [4, 17]: 1.25 µg/mL (≈ 5.34 µM)

Structure (SMILES): CCN(CC)c1n[n+]([O-])c2ccccc2[n+]1[O-] [SRI-009728]
- MIC [1, 13]: 0.16 µg/mL (≈ 0.683 µM)
- MIC [5, 14]: 0.31 µg/mL (≈ 1.32 µM)
- MIC [2, 15]: 0.31 µg/mL (≈ 1.32 µM)
- MIC ([3]; ATCC35837, read-out: Activity against Mtb strain resistant to Ethambutol ATCC 35837): 0.31 µg/mL (≈ 1.32 µM)
- MIC [6, 16]: 0.31 µg/mL (≈ 1.32 µM)
- MIC [4, 17]: 0.31 µg/mL (≈ 1.32 µM)
